This is an account of results in ChEMBL document CHEMBL6103567, “A novel pyridine-2-one AMPK inhibitor: Discovery, mechanism, and in vivo evaluation in a hypoxic pulmonary arterial hypertension rat model” (Eur J Med Chem, 2025).

Molecules are shown by their SMILES. pIC50: −log10 of the molar value.

Assay [1] in a line: Induction of apoptosis in hypoxia-induced human PASMC cells assessed as late apoptotic cells at 5 uM incubated for 12 hrs by Annexin V/FITC staining based flow cytometry analysis (reference value: 0.88%). It counts as functional.
The nature of assay [2]: Induction of apoptosis in hypoxia-induced human PASMC cells assessed as early apoptotic cells at 5 uM incubated for 12 hrs by Annexin V/FITC staining based flow cytometry analysis (reference value: 10.17%). The assay is classed as functional.
The nature of assay [3]: Antiproliferative activity against human PASMC cells assessed as cell viability incubated for 48 hrs under hypoxia condition by CCK-8 assay. The assay is classed as toxicity, cell-based.
The nature of assay [4]: Induction of apoptosis in hypoxia-induced human PASMC cells assessed as viable cells at 5 uM incubated for 12 hrs by Annexin V/FITC staining based flow cytometry analysis (reference value: 88.26%). The assay is classed as functional. As to conditions: read-out: Activity.
Assay [5] in a line: Induction of apoptosis in hypoxia-induced human PASMC cells assessed as necrotic cells at 5 uM incubated for 12 hrs by Annexin V/FITC staining based flow cytometry analysis (reference value: 0.68%). The assay is classed as functional.

In the case of `c1cc(-c2cnn3cc(-c4ccc(OCCN5CCCCC5)cc4)cnc23)ccn1` [DORSOMORPHIN], the Activity is recorded as 1.7% in assay [1], 7.31% in assay [2] and 1.56% in assay [5]. In addition, the pIC50 in assay [3] was 5.26. In addition, in assay [4], the viability at 5 µM worked out at 89.4%.
